Reference: patent publication US20170050966A1, “INHIBITING THE TRANSIENT RECEPTOR POTENTIAL A1 ION CHANNEL” (HYDRA BIOSCIENCES, INC., priority 2014, published 2017)
Values after ≈ are worked out from the molar mass of the structure shown. Read-outs that look alike come from different tables or passages of the source.

Key:
[1] = Solubility in fasted-state simulated intestinal fluid (FaSSIF); format: physicochemical; details: thermodynamic from solid, pH 6.5, 25° C., read-out: Solubility in the FaSSIF model
Procedure: Solubility was also determined in a fasted-state simulated intestinal fluid (FaSSIF) assay. Briefly, Compound 2 was added to the FaSSIF medium (bile salts, NaOH (0.420 g), NaH2PO4 (3.438 g), NaCl (6.186 g), pH to 6.5, at 25° C., and brought to a 1 L volume) agitated for 30 hours and sampled, centrifuged, and analyzed by UPLC. Solubility in the FaSSIF model was determined to be 1.19 mg/ml.

[2] = Plasma protein binding, equilibrium dialysis; details: pooled K2EDTA plasma
Procedure: With this method, free compound is separated from protein-bound compound by dialysis across a semi-permeable membrane.
The protein binding was tested at a concentration of 1 μM. Pooled human, cynomolgus monkey, dog, and rat K2EDTA plasma was thawed and centrifuged at 2000×g for 10 minutes at 4° C. to remove particulates; any lipid on the top of the supernatant was also removed by aspiration. The plasma was warmed to 37° C. for 10 minutes before use. Test compounds were spiked into 2 ml plasma in a polypropylene plate to a final concentration of 1 μM. Triplicate 400 μl aliquots of spiked plasma were transferred into the Thermo RED dialysis units and dialyzed against 600 μl of PBS buffer. […] After 6 hours dialysis, triplicate 50 μl aliquots were removed from the RED plate, matrix-matched with either PBS buffer or blank plasma, as appropriate, and quenched with 4 volumes of ACN containing an internal standard. The extracted samples were then centrifuged at 2000×g for 5 minutes at 4° C. The supernatant (50 μl) was removed and diluted with 100 μl water prior to LC/MS/MS bioanalysis.

human TRPA1 (hTRPA1) = molecular target: T1, human TRPA1 (hTRPA1) (Homo sapiens, UniProt O75762); experiment: hTRPA1 IC50 in presence of albumin and plasma, whole-cell patch clamp; format: cell-based; details: for IC50: 20 μM AITC
T1 construct: expressed in transfected cells
T1 sequence (O75762 whole entry): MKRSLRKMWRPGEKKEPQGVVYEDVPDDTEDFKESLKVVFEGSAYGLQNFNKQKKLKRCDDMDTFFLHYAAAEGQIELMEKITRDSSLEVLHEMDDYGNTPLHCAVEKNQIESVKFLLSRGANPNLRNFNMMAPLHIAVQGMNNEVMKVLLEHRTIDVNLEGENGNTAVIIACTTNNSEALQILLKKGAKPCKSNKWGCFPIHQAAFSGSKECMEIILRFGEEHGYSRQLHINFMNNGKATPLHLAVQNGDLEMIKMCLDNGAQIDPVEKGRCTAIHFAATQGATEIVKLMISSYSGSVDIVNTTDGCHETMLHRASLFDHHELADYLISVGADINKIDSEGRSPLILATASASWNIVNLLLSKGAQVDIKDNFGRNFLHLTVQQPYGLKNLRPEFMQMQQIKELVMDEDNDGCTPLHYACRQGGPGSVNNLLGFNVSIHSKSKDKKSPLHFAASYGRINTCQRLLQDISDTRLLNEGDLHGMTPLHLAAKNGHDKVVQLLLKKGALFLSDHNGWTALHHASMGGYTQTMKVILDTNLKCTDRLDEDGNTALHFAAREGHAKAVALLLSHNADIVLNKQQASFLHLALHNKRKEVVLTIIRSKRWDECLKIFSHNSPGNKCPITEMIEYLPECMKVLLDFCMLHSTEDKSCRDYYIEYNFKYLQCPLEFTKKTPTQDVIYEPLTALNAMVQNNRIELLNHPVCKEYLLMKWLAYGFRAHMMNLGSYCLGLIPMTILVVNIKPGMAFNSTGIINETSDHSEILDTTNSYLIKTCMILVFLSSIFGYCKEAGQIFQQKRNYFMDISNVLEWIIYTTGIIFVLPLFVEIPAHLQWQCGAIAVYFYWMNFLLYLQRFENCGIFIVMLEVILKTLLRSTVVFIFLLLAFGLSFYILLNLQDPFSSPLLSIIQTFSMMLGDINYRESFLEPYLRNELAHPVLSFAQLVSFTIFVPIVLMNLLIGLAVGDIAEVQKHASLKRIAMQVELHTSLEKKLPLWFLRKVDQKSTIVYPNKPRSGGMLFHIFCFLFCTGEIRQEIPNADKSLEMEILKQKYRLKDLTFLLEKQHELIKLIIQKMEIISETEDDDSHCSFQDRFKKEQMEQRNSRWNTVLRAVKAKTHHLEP
From the text: The change in IC50 block in the presence of albumin and plasma was also studied. It is assumed that the pharmacological effect of a drug correlates to unbound plasma levels, which is known as the “free drug hypothesis”. The aim of this study was to estimate the change in IC50 for block of human TRPA1 (hTRPA1) by Compound 2 in the presence of physiologically relevant concentrations of albumin and plasma (see Table 7). The human form of TRPA1 was used to assess protein binding in all species due to technical issues. The whole-cell patch clamp technique as described in del Camino, D. et al. J Neurosci 74 (2010) 30:15165 was employed to measure current through hTRPA1 upon activation by allyl isothiocyanate (AITC), the active ingredient in mustard oil, in the presence of 1% (w/v) serum albumin or 25% (v/v) plasma from various species including human plasma (hPlasma), human serum albumin (HSA), rat plasma (rPlasma), rat serum albumin (RSA), dog plasma, and sheep serum albumin (sheepSA). Compound 2 was sub-diluted from a 10 mM stock in DMSO to 10 and 100 μM in DMSO, then diluted into Ringer solution at the concentrations referenced in Table 7 and Table 8.

sheepTRPA1 = sheepTRPA1 (Ovis aries, UniProt A0ACI6QTQ3); experiment: TRPA1 IC50, whole-cell patch clamp; format: cell-based, Sheep; details: sheepTRPA1, 20 μM AITC; read-out: IC50 Inward current
sheepTRPA1, sequence (A0ACI6QTQ3 entry or part of it): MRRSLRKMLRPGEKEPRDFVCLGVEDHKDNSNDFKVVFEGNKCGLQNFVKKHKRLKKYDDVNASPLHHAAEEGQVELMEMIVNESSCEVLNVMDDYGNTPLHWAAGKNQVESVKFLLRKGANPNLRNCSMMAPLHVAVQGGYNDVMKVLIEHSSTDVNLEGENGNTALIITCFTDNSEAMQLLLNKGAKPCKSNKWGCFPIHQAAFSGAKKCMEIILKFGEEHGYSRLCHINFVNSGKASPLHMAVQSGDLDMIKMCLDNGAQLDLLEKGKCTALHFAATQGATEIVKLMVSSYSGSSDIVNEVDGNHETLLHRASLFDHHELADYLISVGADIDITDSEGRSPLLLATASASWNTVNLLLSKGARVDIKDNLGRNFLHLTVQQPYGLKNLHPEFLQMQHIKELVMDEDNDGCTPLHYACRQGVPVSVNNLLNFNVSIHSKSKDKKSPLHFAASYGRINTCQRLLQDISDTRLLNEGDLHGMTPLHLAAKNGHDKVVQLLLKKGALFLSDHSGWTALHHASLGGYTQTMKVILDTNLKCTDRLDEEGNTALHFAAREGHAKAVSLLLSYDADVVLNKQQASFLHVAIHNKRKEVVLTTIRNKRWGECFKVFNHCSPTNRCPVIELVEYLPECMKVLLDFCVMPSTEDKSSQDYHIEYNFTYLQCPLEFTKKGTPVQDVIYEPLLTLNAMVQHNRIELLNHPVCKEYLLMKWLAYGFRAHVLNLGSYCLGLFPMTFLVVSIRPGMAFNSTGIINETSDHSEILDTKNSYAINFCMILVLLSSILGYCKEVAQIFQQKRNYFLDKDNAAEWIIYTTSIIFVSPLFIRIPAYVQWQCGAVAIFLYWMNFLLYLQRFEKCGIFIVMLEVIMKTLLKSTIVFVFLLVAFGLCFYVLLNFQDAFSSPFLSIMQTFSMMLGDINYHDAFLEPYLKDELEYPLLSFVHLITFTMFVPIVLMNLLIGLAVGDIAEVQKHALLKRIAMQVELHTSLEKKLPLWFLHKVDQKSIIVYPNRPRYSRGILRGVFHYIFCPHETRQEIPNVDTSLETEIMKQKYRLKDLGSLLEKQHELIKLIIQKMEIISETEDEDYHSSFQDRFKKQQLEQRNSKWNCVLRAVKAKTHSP

[3] = Plasma levels in CFA cold hypersensitivity study; format: in vivo, rat
From the text: Table 16 summarizes the average plasma levels of Compound 2 and Compound A. Approximately dose proportional exposures of Compound 2 were observed throughout the dose range tested. Decreased plasma binding of Compound 2 indicates an improved bioavailability of Compound 2 to the subjects over Compound A.

cynomolgus monkeys = experiment: Hepatotoxicity safety profile, serum biomarkers; format: in vivo; details: for ALP d28 / ALT d28 / AST d28 / GGT d28: day 28
Procedure: Compound 2 in the vehicle (0.5% methylcellulose, 400 cps) was administered via nasogastric intubation once daily for 28 or 29 consecutive days to 4 groups of cynomolgus monkeys. Each group received one dose level. Dosage levels were 10, 30, 100, and 300 mg/kg/day per group. […] The dosage volume was 10 ml/kg for all groups. Hepatoxicity was measured via the serum biomarkers of alanine aminotransferease [ALT], aspartate aminotransferase [AST], alkaline phosphastase [ALP] and gamma-glutamyl transferase [GGT] which represent hepatotoxicity or bile duct injury.

CYP2B6 = CYP2B6 (Homo sapiens, UniProt P20813); experiment: in vitro; details: probe Buproprion
CYP2B6, sequence (P20813 whole entry): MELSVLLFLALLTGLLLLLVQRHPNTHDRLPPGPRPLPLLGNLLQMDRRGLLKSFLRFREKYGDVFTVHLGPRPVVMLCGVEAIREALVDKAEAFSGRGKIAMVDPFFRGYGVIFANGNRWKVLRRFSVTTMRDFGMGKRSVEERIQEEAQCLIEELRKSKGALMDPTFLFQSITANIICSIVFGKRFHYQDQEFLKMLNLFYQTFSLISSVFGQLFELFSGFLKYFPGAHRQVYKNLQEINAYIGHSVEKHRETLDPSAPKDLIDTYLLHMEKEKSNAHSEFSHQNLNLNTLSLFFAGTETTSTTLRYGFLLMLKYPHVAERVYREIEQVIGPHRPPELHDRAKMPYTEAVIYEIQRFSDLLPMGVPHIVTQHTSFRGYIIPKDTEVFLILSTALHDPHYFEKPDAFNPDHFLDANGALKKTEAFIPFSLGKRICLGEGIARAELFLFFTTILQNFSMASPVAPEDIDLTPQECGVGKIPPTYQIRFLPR

CYP2C8 = CYP2C8 (Homo sapiens, UniProt P10632); experiment: in vitro; details: probe Amodiaquine
CYP2C8, sequence (P10632 whole entry): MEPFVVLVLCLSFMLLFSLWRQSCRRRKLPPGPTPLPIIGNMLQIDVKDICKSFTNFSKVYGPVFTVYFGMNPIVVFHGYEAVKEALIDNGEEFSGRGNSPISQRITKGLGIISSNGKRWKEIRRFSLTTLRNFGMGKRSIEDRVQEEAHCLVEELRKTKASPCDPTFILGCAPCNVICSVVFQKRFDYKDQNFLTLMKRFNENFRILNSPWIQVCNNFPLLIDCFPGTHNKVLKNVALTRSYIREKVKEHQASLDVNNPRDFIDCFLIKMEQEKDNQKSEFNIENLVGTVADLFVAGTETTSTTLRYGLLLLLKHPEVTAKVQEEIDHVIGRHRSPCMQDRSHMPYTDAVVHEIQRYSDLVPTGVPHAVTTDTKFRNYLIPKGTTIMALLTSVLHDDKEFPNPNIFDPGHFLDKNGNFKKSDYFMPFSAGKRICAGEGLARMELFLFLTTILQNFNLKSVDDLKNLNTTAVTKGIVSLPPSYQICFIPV

CYP2C9 = CYP2C9 (Homo sapiens, UniProt P11712); experiment: in vitro; details: probe Diclofenac
CYP2C9, sequence (P11712 whole entry): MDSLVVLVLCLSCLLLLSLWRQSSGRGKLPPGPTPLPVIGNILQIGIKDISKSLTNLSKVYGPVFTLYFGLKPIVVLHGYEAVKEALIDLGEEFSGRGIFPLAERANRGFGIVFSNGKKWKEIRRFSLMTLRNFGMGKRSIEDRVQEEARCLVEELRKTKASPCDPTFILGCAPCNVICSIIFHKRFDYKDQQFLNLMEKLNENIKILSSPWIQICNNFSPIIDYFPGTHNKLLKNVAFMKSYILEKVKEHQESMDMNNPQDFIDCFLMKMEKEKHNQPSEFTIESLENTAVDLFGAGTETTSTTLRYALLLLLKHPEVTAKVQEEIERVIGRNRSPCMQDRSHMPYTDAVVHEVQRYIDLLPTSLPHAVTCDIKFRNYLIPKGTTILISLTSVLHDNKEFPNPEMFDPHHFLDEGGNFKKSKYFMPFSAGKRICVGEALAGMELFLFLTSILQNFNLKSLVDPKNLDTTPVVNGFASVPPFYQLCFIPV

Question: What does the source list for C[C@@H](C(=O)Nc1ccnc(-c2cnc(N3CCC[C@H]3C(F)(F)F)nc2)n1)n1cnc2c1c(=O)n(C)c(=O)n2C [Compound 2, (S)-2-(1,3-dimethyl-2,6-dioxo-2,3-dihydro-1H-purin-7(6H)-yl)-N-(2′-((S)-2-(trifluoromethyl)pyrrolidin-1-yl)-[2,5′-bipyrimidin]-4-yl)propanamide]?
Answer: solubility at 30 h [1]: 1190 µg/mL (≈ 2190 µM); fraction unbound at 6 h, 1 μM ([2]; beagle, dog): 0.055; fraction unbound at 6 h, 1 μM ([2]; cynomolgus monkey): 0.02; IC50 (human TRPA1 (hTRPA1); 1% (w/v) rat serum albumin, read-out: IC50 + RSA): 95 ± 9 nM; IC50 (human TRPA1 (hTRPA1); 1% (w/v) sheep serum albumin, read-out: IC50 + SheepSA): 70 ± 10 nM; IC50 (human TRPA1 (hTRPA1); 25% (v/v) dog plasma, read-out: IC50 + dog Plasma): 221 ± 54 nM; IC50 (human TRPA1 (hTRPA1); 25% (v/v) human plasma, read-out: IC50 + hPlasma): 95 ± 2 nM; IC50 (human TRPA1 (hTRPA1); 25% (v/v) rat plasma, read-out: IC50 + rPlasma): 68 ± 8 nM; Fold Shift (human TRPA1 (hTRPA1); IC50 + RSA): 14X; Fold Shift (human TRPA1 (hTRPA1); IC50 + SheepSA): 10X; Fold Shift (human TRPA1 (hTRPA1); IC50 + dog Plasma): 32X; Fold Shift (human TRPA1 (hTRPA1); IC50 + hPlasma vs IC50 in absence of serum): 14 X; Fold Shift (human TRPA1 (hTRPA1); IC50 + rPlasma): 10X; binding to plasma proteins based on the shift in IC50 (human TRPA1 (hTRPA1); across the four species tested): 90-97%; time to complete block and reversal upon washout (human TRPA1 (hTRPA1); hTRPA1 currents): 2 to 3 min; IC50 (sheepTRPA1): 3280 ± 640 nM; PLASMA ([3]; 0.3 mg/kg PO): 70 ± 11 ng/mL; PLASMA ([3]; 1 mg/kg PO): 265 ± 56 ng/mL; PLASMA ([3]; 3 mg/kg PO): 800 ± 160 ng/mL; PLASMA ([3]; 10 mg/kg PO): 2780 ± 425 ng/mL; ALP d28 (cynomolgus monkeys; 10 mg/kg/day nasogastric): 744.0 U/L; ALT d28 (cynomolgus monkeys; 10 mg/kg/day nasogastric): 87.0 U/L; AST d28 (cynomolgus monkeys; 10 mg/kg/day nasogastric): 126.0 U/L; GGT d28 (cynomolgus monkeys; 10 mg/kg/day nasogastric): 64.0 U/L; ALP d28 (cynomolgus monkeys; 30 mg/kg/day nasogastric): 461.0 U/L; ALT d28 (cynomolgus monkeys; 30 mg/kg/day nasogastric): 50.0 U/L; AST d28 (cynomolgus monkeys; 30 mg/kg/day nasogastric): 72.0 U/L; GGT d28 (cynomolgus monkeys; 30 mg/kg/day nasogastric): 49.0 U/L; ALP d28 (cynomolgus monkeys; 100 mg/kg/day nasogastric): 532.0 U/L; ALT d28 (cynomolgus monkeys; 100 mg/kg/day nasogastric): 61.0 U/L; AST d28 (cynomolgus monkeys; 100 mg/kg/day nasogastric): 70.0 U/L; GGT d28 (cynomolgus monkeys; 100 mg/kg/day nasogastric): 53.7 U/L; ALP d28 (cynomolgus monkeys; 300 mg/kg/day nasogastric): 441.0 U/L; ALT d28 (cynomolgus monkeys; 300 mg/kg/day nasogastric): 67.0 U/L; AST d28 (cynomolgus monkeys; 300 mg/kg/day nasogastric): 134.0 U/L; GGT d28 (cynomolgus monkeys; 300 mg/kg/day nasogastric): 54.8 U/L; serum biomarkers of hepatotoxicity (ALT, AST, ALP, GGT) (cynomolgus monkeys; cynomolgus monkeys, once daily for 28 or 29 days): did not elevate the serum biomarkers up to and including a dose of 300 mg/kg; inhibition at 10 µM (CYP2B6): 15.1%; inhibition at 10 µM (CYP2C8): 3.2%; inhibition at 10 µM (CYP2C9): 22%
